# Source: patent US20110197373A1, “Depilatory Article” (priority 2010, published 2011)
# System: unwanted hair on skin
# Assay: removal of hair from the skin with the depilatory article / thioglycolate salts
# Format: in vivo, human
# Conditions: thioglycolate salt as keratin reducing agent
# Description: A second aspect being a method of removing hair from the skin is also provided by the present invention, comprising the steps of: • (a) applying a depilatory article according to the present invention to a surface of skin, preferably human skin, • (b) leaving said depilatory article in contact with the skin for a period of at least 1 minute, preferably 2 to 10 minutes, more preferably 2 to 8 minutes, • (c) removing said depilatory article from the surface of the skin, and • (d) preferably rubbing, scraping, rinsing or wiping the surface of the skin in the area to which the depilatory article was applied. The formulation was disposed to a thickness of 0.3 mm, width of 1.5 cm and length of 3.5 cm on a cast HDPE 85% LLDPE 15% polymer blend film (23 microns in thickness and cut to 4.6 cm in length and 3.2 cm in width) using a stencil and wiper blade, such that the area covered by the formulation was centered along the width of the film and 1 mm away from the perimeter edge of one end of the film's length.
compound,measurement,value
O=C([O-])CS.[K+] [potassium thioglycolate],effectiveness at removing hair from the skin,"effective at removing hair from the skin, even at low doses"
